Assay results reported in patent US12252524B2, “GIP/GLP1 co-agonist compounds” (Eli Lilly and Company, priority 2018, dated 2025).
Numbered stars: 1 amine (or outer) side, 2 acyl side, 3 side chain; on linkers, the order of the positions; unused ones are H or OH. Square brackets hold non-standard residues; d marks the D form. Side chains are listed from the residue outwards. Peptide text beside a SMILES is read from it. * marks the point of attachment. Ala(1H-tetrazol-5-yl) = N[C@@H](Cc1nnn[nH]1)C(=O)O; C20 diacid = O=C(O)CCCCCCCCCCCCCCCCCCC(=O)*; αMePhe(2-F) = C[C@](N)(Cc1ccccc1F)C(=O)O; γGlu = O=C(O)[C@H](CCC(=O)[*:2])N[*:1]; αMeF = C[C@](N)(Cc1ccccc1)C(=O)O; αMeL = CC(C)C[C@](C)(N)C(=O)O; AEEA = NCCOCCOCC(=O)O; Aib = CC(C)(N)C(=O)O

Assays:
human Gcg receptor = molecular target: T1, human Gcg receptor (Homo sapiens, UniProt P47871); assay: [125I]-Glucagon binding (SPA), human Gcg receptor; conditions: read-out: hGLcgR Ki, nM (SEM, n)
T1 construct: expressed in transfected cells; crude membranes
In short: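 Scintillation counts are taken after membranes and WGA beads incubate and settle for 12 hours at room temperature. Buffer is 25 mM HEPES, pH 7.4, with CaCl2, MgCl2, bacitracin and Tween-20. Ki values, from four-parameter IC50 fits, are geometric means over independent days.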

human GIP receptor = molecular target: T2, human GIP receptor (Homo sapiens, UniProt P48546); assay: [125I]-GIP binding (SPA), human GIP receptor; conditions: read-out: hGIPR Ki, nM (SEM, n)
T2 construct: expressed in transfected cells; crude membranes
T2 sequence (P48546 22-466): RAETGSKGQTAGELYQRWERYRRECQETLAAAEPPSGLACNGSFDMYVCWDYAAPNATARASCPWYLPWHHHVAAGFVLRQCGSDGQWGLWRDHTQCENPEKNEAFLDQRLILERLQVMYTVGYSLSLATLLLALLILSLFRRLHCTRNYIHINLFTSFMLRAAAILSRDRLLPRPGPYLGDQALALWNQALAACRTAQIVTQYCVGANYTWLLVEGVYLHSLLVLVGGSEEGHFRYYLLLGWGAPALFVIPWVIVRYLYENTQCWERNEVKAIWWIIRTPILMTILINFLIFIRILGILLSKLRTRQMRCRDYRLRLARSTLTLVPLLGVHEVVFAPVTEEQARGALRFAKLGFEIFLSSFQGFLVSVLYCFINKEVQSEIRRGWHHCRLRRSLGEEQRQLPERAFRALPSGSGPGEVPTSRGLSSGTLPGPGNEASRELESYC

[1] = molecular target: human GLP-1 receptor (GLP-1R) (Homo sapiens, UniProt P43220); assay: cAMP pharmacological functional assay in presence of casein, hGLP-1R; assay type: cell-based; conditions: HEK293 cells expressing hGLP-1R, 0.1% Casein, geometric mean; read-out: hGLP1R cAMP Rel EC50 nM (SEM, n)
[2] = molecular target: T3, gastric inhibitory peptide receptor (GIPR) (Homo sapiens, UniProt P48546); assay: cAMP pharmacological functional assay in presence of casein, hGIPR; assay type: cell-based; conditions: HEK293 cells expressing hGIPR, 0.1% Casein, geometric mean; read-out: hGIPR cAMP Rel EC50 nM (SEM, n)
T3 sequence (P48546 22-466): T2 sequence (P48546 22-466)

human GLP-1R = human GLP-1R (Homo sapiens, UniProt P43220); assay: [125I]-GLP-1 binding (SPA), human GLP-1 receptor; parameters: expressed in transfected cells; crude membranes; conditions: read-out: hGLP1R Ki, (nM) (SEM, n)
In short: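 Ki values are geometric means with SEM over independent replicates on different days, derived from IC50s fitted by four-parameter nonlinear regression. The assay used crude cell membranes in HEPES buffer, pH 7.4, containing CaCl2, MgCl2, bacitracin and TWEEN-20.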

T1 sequence (P47871 26-477): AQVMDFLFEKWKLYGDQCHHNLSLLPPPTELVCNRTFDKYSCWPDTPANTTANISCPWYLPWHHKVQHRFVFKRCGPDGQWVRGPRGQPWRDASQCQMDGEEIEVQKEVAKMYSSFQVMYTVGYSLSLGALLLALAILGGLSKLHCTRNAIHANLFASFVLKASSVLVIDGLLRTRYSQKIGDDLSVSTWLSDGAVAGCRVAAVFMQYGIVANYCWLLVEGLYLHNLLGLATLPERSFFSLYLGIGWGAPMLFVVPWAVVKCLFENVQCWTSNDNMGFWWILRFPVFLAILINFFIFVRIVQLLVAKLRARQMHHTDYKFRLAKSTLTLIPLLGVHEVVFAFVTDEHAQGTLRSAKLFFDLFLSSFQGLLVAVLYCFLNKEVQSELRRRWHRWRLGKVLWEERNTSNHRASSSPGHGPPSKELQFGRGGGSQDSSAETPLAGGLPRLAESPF
Sequence of human GLP-1 receptor (GLP-1R) (P43220 24-463): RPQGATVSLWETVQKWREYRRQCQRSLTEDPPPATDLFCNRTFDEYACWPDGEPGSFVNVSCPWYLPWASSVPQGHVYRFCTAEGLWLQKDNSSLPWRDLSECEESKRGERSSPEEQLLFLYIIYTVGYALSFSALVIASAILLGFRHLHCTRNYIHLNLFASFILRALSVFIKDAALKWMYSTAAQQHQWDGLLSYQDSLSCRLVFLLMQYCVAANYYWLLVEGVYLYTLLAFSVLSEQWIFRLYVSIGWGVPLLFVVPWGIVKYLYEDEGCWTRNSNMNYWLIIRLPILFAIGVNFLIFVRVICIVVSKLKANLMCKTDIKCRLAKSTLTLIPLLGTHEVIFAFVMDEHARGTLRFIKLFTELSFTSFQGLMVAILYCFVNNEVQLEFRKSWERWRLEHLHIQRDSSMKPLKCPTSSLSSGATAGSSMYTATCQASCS
Sequence of human GLP-1R (P43220 24-463): as above

SMILES: CC[C@H](C)[C@H](NC(=O)[C@H](CC(C)C)NC(=O)[C@H](Cc1ccc(O)cc1)NC(=O)[C@H](CCC(=O)O)NC(=O)[C@@H](NC(=O)[C@H](Cc1ccccc1)NC(=O)[C@H](C)NC(=O)C(C)(C)NC(=O)[C@H](CCC(N)=O)NC(=O)[C@H](C)NC(=O)[C@H](CCCCNC(=O)COCCOCCNC(=O)COCCOCCNC(=O)CC[C@H](NC(=O)CCCCCCCCCCCCCCCCCCC(=O)O)C(=O)O)NC(=O)[C@H](CCC(=O)O)NC(=O)[C@H](CC(=O)O)NC(=O)[C@H](CC(C)C)NC(=O)C(C)(C)NC(=O)[C@@H](NC(=O)[C@H](CO)NC(=O)[C@H](Cc1ccc(O)cc1)NC(=O)[C@H](CC(=O)O)NC(=O)[C@H](CO)NC(=O)[C@@H](NC(=O)[C@](C)(Cc1ccccc1)NC(=O)[C@@H](NC(=O)CNC(=O)[C@H](CCC(=O)O)NC(=O)C(C)(C)NC(=O)[C@@H](N)Cc1ccc(O)cc1)[C@@H](C)O)[C@@H](C)O)[C@@H](C)CC)[C@@H](C)CC)C(=O)N[C@@H](CCC(=O)O)C(=O)NCC(=O)NCC(=O)N1CCC[C@H]1C(=O)N[C@@H](CO)C(=O)N[C@@H](CO)C(=O)NCC(=O)N[C@@H](C)C(=O)N1CCC[C@H]1C(=O)N1CCC[C@H]1C(=O)N1CCC[C@H]1C(=O)N[C@@H](CO)C(N)=O [Example 117] (H-Y[Aib]EGT[αMeF]TSDYSI[Aib]LDEK([AEEA-AEEA-γGlu-C20 diacid])AQ[Aib]AFIEYLIEGGPSSGAPPPS-NH2)
- Ki (human Gcg receptor): 192 nM
- Ki (human GIP receptor): 0.0497 nM
- EC50 [1]: 0.0615 nM
- EC50 [2]: 0.0648 nM
- Ki (human GLP-1R): 6.96 nM

SMILES: CC[C@H](C)[C@H](NC(=O)[C@H](CC(C)C)NC(=O)[C@H](Cc1ccc(O)cc1)NC(=O)[C@H](CCC(=O)O)NC(=O)[C@@H](NC(=O)[C@H](Cc1ccccc1)NC(=O)[C@H](CCC(=O)O)NC(=O)C(C)(C)NC(=O)[C@H](CCC(N)=O)NC(=O)[C@H](C)NC(=O)[C@H](CCCCNC(=O)COCCOCCNC(=O)COCCOCCNC(=O)CC[C@H](NC(=O)CCCCCCCCCCCCCCCCCCC(=O)O)C(=O)O)NC(=O)[C@H](CCC(=O)O)NC(=O)[C@H](CC(=O)O)NC(=O)[C@H](CC(C)C)NC(=O)[C@](C)(CC(C)C)NC(=O)[C@@H](NC(=O)[C@H](CO)NC(=O)[C@H](Cc1ccc(O)cc1)NC(=O)[C@H](CC(=O)O)NC(=O)[C@H](CO)NC(=O)[C@@H](NC(=O)[C@](C)(Cc1ccccc1F)NC(=O)[C@@H](NC(=O)CNC(=O)[C@H](CCC(=O)O)NC(=O)C(C)(C)NC(=O)[C@@H](N)Cc1ccc(O)cc1)[C@@H](C)O)[C@@H](C)O)[C@@H](C)CC)[C@@H](C)CC)C(=O)N[C@@H](CCC(=O)O)C(=O)NCC(=O)NCC(=O)N1CCC[C@H]1C(=O)N[C@@H](CO)C(=O)N[C@@H](CO)C(=O)NCC(=O)N[C@@H](C)C(=O)N1CCC[C@H]1C(=O)N1CCC[C@H]1C(=O)N1CCC[C@H]1C(=O)N[C@@H](CO)C(N)=O [Example 118] (H-Y[Aib]EGT[αMePhe(2-F)]TSDYSI[αMeL]LDEK([AEEA-AEEA-γGlu-C20 diacid])AQ[Aib]EFIEYLIEGGPSSGAPPPS-NH2)
- Ki (human Gcg receptor): 53 nM
- Ki (human GIP receptor): 0.0859 nM
- EC50 [1]: 0.0588 nM
- EC50 [2]: 0.0538 nM
- Ki (human GLP-1R): 6.1 nM

SMILES: CC[C@H](C)[C@H](NC(=O)[C@H](CC(C)C)NC(=O)[C@H](Cc1ccc(O)cc1)NC(=O)[C@H](CCC(=O)O)NC(=O)[C@@H](NC(=O)[C@H](Cc1ccccc1)NC(=O)[C@H](C)NC(=O)C(C)(C)NC(=O)[C@H](CCC(N)=O)NC(=O)[C@H](C)NC(=O)[C@H](CCCCNC(=O)COCCOCCNC(=O)COCCOCCNC(=O)CC[C@H](NC(=O)CCCCCCCCCCCCCCCCCCC(=O)O)C(=O)O)NC(=O)[C@H](CCC(=O)O)NC(=O)[C@H](CC(=O)O)NC(=O)[C@H](CC(C)C)NC(=O)[C@](C)(CC(C)C)NC(=O)[C@@H](NC(=O)[C@H](CO)NC(=O)[C@H](Cc1ccc(O)cc1)NC(=O)[C@H](CC(=O)O)NC(=O)[C@H](CO)NC(=O)[C@@H](NC(=O)[C@](C)(Cc1ccccc1)NC(=O)[C@@H](NC(=O)CNC(=O)[C@H](CCC(=O)O)NC(=O)C(C)(C)NC(=O)[C@@H](N)Cc1ccccc1)[C@@H](C)O)[C@@H](C)O)[C@@H](C)CC)[C@@H](C)CC)C(=O)N[C@@H](CCC(=O)O)C(=O)NCC(=O)NCC(=O)N1CCC[C@H]1C(=O)N[C@@H](CO)C(=O)N[C@@H](CO)C(=O)NCC(=O)N[C@@H](C)C(=O)N1CCC[C@H]1C(=O)N1CCC[C@H]1C(=O)N1CCC[C@H]1C(=O)N[C@@H](CO)C(N)=O [Example 119] (H-F[Aib]EGT[αMeF]TSDYSI[αMeL]LDEK([AEEA-AEEA-γGlu-C20 diacid])AQ[Aib]AFIEYLIEGGPSSGAPPPS-NH2)
- Ki (human Gcg receptor): 30.6 nM
- Ki (human GIP receptor): 0.0925 nM
- EC50 [1]: 0.0913 nM
- EC50 [2]: 0.216 nM
- Ki (human GLP-1R): 9.87 nM

SMILES: CC[C@H](C)[C@H](NC(=O)[C@H](CC(C)C)NC(=O)[C@H](Cc1ccc(O)cc1)NC(=O)[C@H](CCC(=O)O)NC(=O)[C@@H](NC(=O)[C@H](Cc1ccccc1)NC(=O)[C@H](C)NC(=O)C(C)(C)NC(=O)[C@H](CCC(N)=O)NC(=O)[C@H](C)NC(=O)[C@H](CCCCNC(=O)COCCOCCNC(=O)COCCOCCNC(=O)CC[C@H](NC(=O)CCCCCCCCCCCCCCCCCCC(=O)O)C(=O)O)NC(=O)[C@H](CCC(=O)O)NC(=O)[C@H](CC(=O)O)NC(=O)[C@H](CC(C)C)NC(=O)[C@](C)(CC(C)C)NC(=O)[C@@H](NC(=O)[C@H](CO)NC(=O)[C@H](Cc1ccc(O)cc1)NC(=O)[C@H](CC(=O)O)NC(=O)[C@H](CO)NC(=O)[C@@H](NC(=O)[C@](C)(Cc1ccccc1)NC(=O)[C@@H](NC(=O)CNC(=O)[C@H](Cc1nn[nH]n1)NC(=O)C(C)(C)NC(=O)[C@@H](N)Cc1ccc(O)cc1)[C@@H](C)O)[C@@H](C)O)[C@@H](C)CC)[C@@H](C)CC)C(=O)N[C@@H](CCC(=O)O)C(=O)NCC(=O)NCC(=O)N1CCC[C@H]1C(=O)N[C@@H](CO)C(=O)N[C@@H](CO)C(=O)NCC(=O)N[C@@H](C)C(=O)N1CCC[C@H]1C(=O)N1CCC[C@H]1C(=O)N1CCC[C@H]1C(=O)N[C@@H](CO)C(N)=O [Example 120] (H-Y[Aib][Ala(1H-tetrazol-5-yl)]GT[αMeF]TSDYSI[αMeL]LDEK([AEEA-AEEA-γGlu-C20 diacid])AQ[Aib]AFIEYLIEGGPSSGAPPPS-NH2; N-terminus assumed)
- Ki (human Gcg receptor): 93.6 nM
- Ki (human GIP receptor): 0.11 nM
- EC50 [1]: 0.201 nM
- EC50 [2]: 0.122 nM
- Ki (human GLP-1R): 11.7 nM

SMILES: CC[C@H](C)[C@H](NC(=O)[C@H](CC(C)C)NC(=O)[C@H](Cc1ccc(O)cc1)NC(=O)[C@H](CCC(=O)O)NC(=O)[C@@H](NC(=O)[C@H](Cc1ccccc1)NC(=O)[C@H](C)NC(=O)[C@H](CCC(N)=O)NC(=O)[C@H](CCC(N)=O)NC(=O)[C@H](C)NC(=O)[C@H](CCCCNC(=O)COCCOCCNC(=O)COCCOCCNC(=O)CC[C@H](NC(=O)CCCCCCCCCCCCCCCCCCC(=O)O)C(=O)O)NC(=O)[C@H](CCC(=O)O)NC(=O)[C@H](CC(=O)O)NC(=O)[C@H](CC(C)C)NC(=O)[C@](C)(CC(C)C)NC(=O)[C@@H](NC(=O)[C@H](CO)NC(=O)[C@H](Cc1ccc(O)cc1)NC(=O)[C@H](CC(=O)O)NC(=O)[C@H](CO)NC(=O)[C@@H](NC(=O)[C@](C)(Cc1ccccc1)NC(=O)[C@@H](NC(=O)CNC(=O)[C@H](CCC(=O)O)NC(=O)C(C)(C)NC(=O)[C@@H](N)Cc1ccc(O)cc1)[C@@H](C)O)[C@@H](C)O)[C@@H](C)CC)[C@@H](C)CC)C(=O)N[C@@H](CCC(=O)O)C(=O)NCC(=O)NCC(=O)N1CCC[C@H]1C(=O)N[C@@H](CO)C(=O)N[C@@H](CO)C(=O)NCC(=O)N[C@@H](C)C(=O)N1CCC[C@H]1C(=O)N1CCC[C@H]1C(=O)N1CCC[C@H]1C(=O)N[C@@H](CO)C(N)=O [Example 121] (H-Y[Aib]EGT[αMeF]TSDYSI[αMeL]LDEK([AEEA-AEEA-γGlu-C20 diacid])AQQAFIEYLIEGGPSSGAPPPS-NH2)
- Ki (human Gcg receptor): 51.9 nM
- Ki (human GIP receptor): 0.177 nM
- EC50 [1]: 0.0849 nM
- EC50 [2]: 0.076 nM
- Ki (human GLP-1R): 3.16 nM
